Structures can show the parent of a compound that is named as a salt.
Tests used:
platelet aggregation [1] = test: Inhibitory activity on platelet aggregation in rabbits (ADP-induced, after oral treatment); type: in vivo; details: Oryctolagus cuniculus, 2 hours after oral treatment, 1.5×10^-5 M adenosine diphosphate, ± SE, read-out: Percent inhibition of platelet aggregation, Rabbit
Method: (§1) I. Inhibitory activity on platelet aggregation in rats and rabbits
(§2) The citrated blood was obtained 2 hours after the oral treatment with test compounds. The platelet aggregation of platelet rich-plasma was induced by addition of 1.5×10^-5 M adenosine diphosphate (final concentration) and was measured with a Born type six channel aggregometer (G.V.R. Born, J. Physiol. 162, 67 (1962)). […] II. Antihypertensive activity in spontaneously hypertensive rats

[2] = tested on: spontaneously hypertensive rats; test: Antihypertensive activity in spontaneously hypertensive rats (tail blood pressure); type: in vivo, rat; details: po, decrease of maximum blood pressure at 5 hours after treatment
Method: as §2
A group of 5 spontaneously hypertensive rats (300-350 g) was used. Tail blood pressure was determined by a rat tail manometer (NARCO, PE-300) without anesthesia immediately before and 5 hours after the oral treatment with test compounds. The rat was warmed at 40° C. for 10 minutes. The apparatus detects blood flow pulses in the tail by a pulse sensor. The arterial blood flow was interrupted by applying pressure to the tail through a pneumatic cuff. The blood flow reappeared when the cuff pressure was decreased. The value was approximately equal to the maximum blood pressure.

platelet aggregation [3] = test: Inhibitory activity on platelet aggregation in rats (ADP-induced, after oral treatment); type: in vivo; details: Rattus norvegicus, 2 hours after oral treatment, 1.5×10^-5 M adenosine diphosphate, read-out: Percent inhibition of platelet aggregation, Rat
Method: as §1, §2

SMILES	inhibition at 3 mg/kg (platelet aggregation [1]) [%]	Decrease of tail blood pressure in SHR ([2]; 3 mg/kg) [mmHg]	Decrease of tail blood pressure in SHR ([2]; 30 mg/kg) [mmHg]	inhibition at 3 mg/kg (platelet aggregation [3]) [%]	also measured
CC(=O)OCC1CC(=O)NN=C1c1ccc2c(c1)CCC(=O)N2C (stereo not drawn) [Compound B, 6-(5-Acetoxymethyl-3-oxo-2,3,4,5-tetrahydropyridazin-6-yl)-1-methyl-1,2,3,4-tetrahydroquinolin-2-one]	85 ± 6	31	62	51	–
CC1CC(=O)NN=C1c1ccc2c(c1)C(C)(C)CC(=O)N2C (stereo not drawn) [Compound C, 6-(5-Methyl-3-oxo-2,3,4,5-tetrahydropyridazin-6-yl)-1,4,4-trimethyl-1,2,3,4-tetrahydroquinolin-2-one]	93 ± 1	48	63	59	–
CC1CC(=O)NN=C1c1ccc2c(c1)C(C)CC(=O)N2C (stereo not drawn) [Compound D, 6-(5-Methyl-3-oxo-2,3,4,5-tetrahydropyridazin-6-yl)-1,4-dimethyl-1,2,3,4-tetrahydroquinolin-2-one]	–	71	–	–	inhibition at 0.3 mg/kg (platelet aggregation [1]; 0.3 mg/kg): 78 ± 6%; Decrease of tail blood pressure in SHR ([2]; 0.3 mg/kg): 16 mmHg; inhibition at 0.1 mg/kg (platelet aggregation [3]; 0.1 mg/kg): 38%
CN1C(=O)CC(C)(C)c2cc(C3=NNC(=O)CC3CO)ccc21 (stereo not drawn) [Compound E, 6-(5-Hydroxymethyl-3-oxo-2,3,4,5-tetrahydropyridazin-6-yl)-1,4,4-trimethyl-1,2,3,4-tetrahydroquinolin-2-one]	–	–	–	–	inhibition at 30 mg/kg (platelet aggregation [1]; 30 mg/kg): 48 ± 16%; inhibition at 10 mg/kg (platelet aggregation [3]; 10 mg/kg): 43%
CN1C(=O)CCc2cc(C3=NNC(=O)CC3CO)ccc21 (stereo not drawn) [Compound F, 6-(5-Hydroxymethyl-3-oxo-2,3,4,5-tetrahydropyridazin-6-yl)-1-methyl-1,2,3,4-tetrahydroquinolin-2-one]	–	–	92	62	–
CCC1CC(=O)NN=C1c1ccc2c(c1)CCC(=O)N2CC (stereo not drawn) [Compound G, 6-(5-Ethyl-3-oxo-2,3,4,5-tetrahydropyridazin-6-yl)-1-ethyl-1,2,3,4-tetrahydroquinolin-2-one]	–	–	–	34	–
CCN1C(=O)CCc2cc(C3=NNC(=O)CC3CO)ccc21 (stereo not drawn) [Compound H, 6-(5-Hydroxymethyl-3-oxo-2,3,4,5-tetrahydropyridazin-6-yl)-1-ethyl-1,2,3,4-tetrahydroquinolin-2-one]	–	–	–	46	–
CCN1C(=O)CCc2cc(C3=NNC(=O)CC3COC(C)=O)ccc21 (stereo not drawn) [Compound I, 6-(5-Acetoxymethyl-3-oxo-2,3,4,5-tetrahydropyridazin-6-yl)-1-ethyl-1,2,3,4-tetrahydroquinolin-2-one]	–	–	47	46	–
CCN1C(=O)CCc2cc(C3=NNC(=O)CC3C)ccc21 (stereo not drawn) [Compound J, 6-(5-Methyl-3-oxo-2,3,4,5-tetrahydropyridazin-6-yl)-1-ethyl-1,2,3,4-tetrahydroquinolin-2-one]	–	–	–	35	–
CC1CC(=O)N(CCN2CCOCC2)N=C1c1ccc2c(c1)CCC(=O)N2C (stereo not drawn) [Compound K, 6-[5-Methyl-2-(2-morpholinoethyl)-3-oxo-2,3,4,5-tetrahydropyridazin-6-yl]-1-methyl-1,2,3,4-tetrahydroquinolin-2-one hydrochloride hemihydrate]	75 ± 8	45	–	51	–
